Laboratory results from patent publication US9211310B2, “Use of a Chinese medicine composition in preparing medicaments for treating secondary prevention of myocardial infarction” (TASLY PHARMACEUTICAL GROUP CO., LTD, priority 2010, dated 2015).

Tested on: patients after acute myocardial infarction
Test: Angina pectoris score, total and single (frequency/attack times, duration, pain degree, dose of nitroglycerin), same clinical trial
Type: in vivo, human
Design: total angina pectoris score, Md / total angina pectoris score, Mean: scale not given here
Details: for attack times score, patients (%): Baseline; for distribution of total angina pectoris score: Medium, number of patients / distribution of total angina pectoris score: Medium, percentage of patients / distribution of total angina pectoris score: Mild, number of patients / distribution of total angina pectoris score: Mild, percentage of patients / distribution of total angina pectoris score: Severe, number of patients / distribution of total angina pectoris score: Severe, percentage of patients / patients with dose of nitroglycerin score 0 (%) / patients with dose of nitroglycerin score 1 (%) / patients with dose of nitroglycerin score 2 (%) / patients with dose of nitroglycerin score 4 (%) / patients with dose of nitroglycerin score 6 (%) / total angina pectoris score, Md / total angina pectoris score, Mean / change of total angina pectoris score, Md / change of total angina pectoris score, Mean / patients with change of dose of nitroglycerin score 0 (%) / patients with change of dose of nitroglycerin score 1 (%) / patients with change of dose of nitroglycerin score 2 (%) / patients with change of dose of nitroglycerin score 4 (%) / patients with change of dose of nitroglycerin score 6 (%) / patients with change of dose of nitroglycerin score −1 (%) / patients with change of dose of nitroglycerin score −2 (%) / patients with change of dose of nitroglycerin score −3 (%) / patients with change of dose of nitroglycerin score −4 (%) / patients with change of dose of nitroglycerin score −6 (%) / patients with change of dose of nitroglycerin score −5 (%): FAS
Description: In order to better understand the present invention, a multi-center, randomized, double-blind, double-dummy and positive drug controlled trial had been conducted. 3508 patients who were in accordance with the diagnostic standards of AMI for 28 days to 2 years and differentiated as Qi deficiency and blood stagnation syndrome by TCM were studied. 0.5 g Chinese medicine composition prepared by the method of EXAMPLE 1 (Coded as QSYQ) was administrated half an hour after meal, 3 times per day. Aspirine was used as a positive drug. The patients were treated for 1 year and observed for 6 months.
They included the overall survival time, angina pectoris score, TCM symptom score and life quality score, where angina pectoris score, TCM symptom score and life quality score were evaluated at randomization, in 1st, 3rd, 6th, 9th, 12th month after treatment and 18th month after follow-up.
(§1) Total angina pectoris score was described on every observation period and the change of observation in comparison with baseline. T-test or Wilcoxon rank sum test were used for inter-group comparison. Grade of total score was evaluated on every observation and Wilcoxon rank sum test was used for inter-group comparison. T-test and Pairing signed rank sum test were used for analyzing the change of total score on every observation between groups in comparison with the baseline.
(§2) Single angina pectoris score was depicted on every observation time-point and the change of observation in comparison with baseline. Wilcoxon rank sum test was used for inter-group comparison. Pairing signed rank sum test was used for analyzing the change of total score on every observation between groups in comparison with the baseline.
as §1, with “comparison with the baseline. T-test” for “comparison with baseline. T-test”
as §2, with “described” for “depicted”

[1] = 1 month after treatment-baseline
[2] = 3 months after treatment-baseline
[3] = 6 months after treatment-baseline
[4] = 9 months after treatment-baseline

CC(=O)Oc1ccccc1C(=O)O [Control group, aspirine]
attack times score, patients (%) (score 1, PP): (8.95%) | attack times score, patients (%) (score 2, FAS): (53.24%) | attack times score, patients (%) (score 2, PP): (53.51%) | attack times score, patients (%) (score 4, FAS): (9.12%) | attack times score, patients (%) (score 4, PP): (9.55%) | attack times score, patients (%) (score 6, FAS): (1.03%) | attack times score, patients (%) (score 6, PP): (1.00%) | distribution of total angina pectoris score: Medium, number of patients (1 month after treatment): 484 | distribution of total angina pectoris score: Medium, percentage of patients (1 month after treatment): (28.24%) | distribution of total angina pectoris score: Mild, number of patients (1 month after treatment): 1203 | distribution of total angina pectoris score: Mild, percentage of patients (1 month after treatment): (70.19%) | distribution of total angina pectoris score: Severe, number of patients (1 month after treatment): 27 | distribution of total angina pectoris score: Severe, percentage of patients (1 month after treatment): (1.58%) | patients with dose of nitroglycerin score 0 (%) (1 month after treatment): (59.78%) | patients with dose of nitroglycerin score 1 (%) (1 month after treatment): (0.29%) | patients with dose of nitroglycerin score 2 (%) (1 month after treatment): (28.94%) | patients with dose of nitroglycerin score 4 (%) (1 month after treatment): (7.65%) | patients with dose of nitroglycerin score 6 (%) (1 month after treatment): (3.34%) | total angina pectoris score, Md (1 month after treatment): 6.00 | total angina pectoris score, Mean (1 month after treatment): 5.92 | change of total angina pectoris score, Md [1]: 0.00 | change of total angina pectoris score, Mean [1]: −1.19 | patients with change of dose of nitroglycerin score 0 (%) [1]: (80.53%) | patients with change of dose of nitroglycerin score 1 (%) [1]: (0.17%) | patients with change of dose of nitroglycerin score 2 (%) [1]: (3.92%) | patients with change of dose of nitroglycerin score 4 (%) [1]: (1.04%) | patients with change of dose of nitroglycerin score 6 (%) [1]: (0.23%) | patients with change of dose of nitroglycerin score −1 (%) [1]: (0.00%) | patients with change of dose of nitroglycerin score −2 (%) [1]: (11.41%) | patients with change of dose of nitroglycerin score −3 (%) [1]: (0.06%) | patients with change of dose of nitroglycerin score −4 (%) [1]: (2.13%) | patients with change of dose of nitroglycerin score −6 (%) [1]: (0.52%) | distribution of total angina pectoris score: Medium, number of patients (3 months after treatment): 397 | distribution of total angina pectoris score: Medium, percentage of patients (3 months after treatment): (23.97%) | distribution of total angina pectoris score: Mild, number of patients (3 months after treatment): 1241 | distribution of total angina pectoris score: Mild, percentage of patients (3 months after treatment): (74.94%) | distribution of total angina pectoris score: Severe, number of patients (3 months after treatment): 18 | distribution of total angina pectoris score: Severe, percentage of patients (3 months after treatment): (1.09%) | patients with dose of nitroglycerin score 0 (%) (3 months after treatment): (61.98%) | patients with dose of nitroglycerin score 1 (%) (3 months after treatment): (0.63%) | patients with dose of nitroglycerin score 2 (%) (3 months after treatment): (29.58%) | patients with dose of nitroglycerin score 4 (%) (3 months after treatment): (5.23%) | patients with dose of nitroglycerin score 6 (%) (3 months after treatment): (2.58%) | total angina pectoris score, Md (3 months after treatment): 6.00 | total angina pectoris score, Mean (3 months after treatment): 5.38 | change of total angina pectoris score, Md [2]: 0.00 | change of total angina pectoris score, Mean [2]: −1.73 | patients with change of dose of nitroglycerin score 0 (%) [2]: (75.23%) | patients with change of dose of nitroglycerin score 1 (%) [2]: (0.17%) | patients with change of dose of nitroglycerin score 2 (%) [2]: (4.44%) | patients with change of dose of nitroglycerin score 4 (%) [2]: (0.69%) | patients with change of dose of nitroglycerin score 6 (%) [2]: (0.29%) | patients with change of dose of nitroglycerin score −1 (%) [2]: (0.29%) | patients with change of dose of nitroglycerin score −2 (%) [2]: (15.15%) | patients with change of dose of nitroglycerin score −4 (%) [2]: (2.94%) | patients with change of dose of nitroglycerin score −5 (%) [2]: (0.12%) | patients with change of dose of nitroglycerin score −6 (%) [2]: (0.69%) | distribution of total angina pectoris score: Medium, number of patients (6 months after treatment): 309 | distribution of total angina pectoris score: Medium, percentage of patients (6 months after treatment): (19.43%) | distribution of total angina pectoris score: Mild, number of patients (6 months after treatment): 1273 | distribution of total angina pectoris score: Mild, percentage of patients (6 months after treatment): (80.06%) | distribution of total angina pectoris score: Severe, number of patients (6 months after treatment): 8 | distribution of total angina pectoris score: Severe, percentage of patients (6 months after treatment): (0.50%) | patients with dose of nitroglycerin score 0 (%) (6 months after treatment): (65.38%) | patients with dose of nitroglycerin score 1 (%) (6 months after treatment): (0.86%) | patients with dose of nitroglycerin score 2 (%) (6 months after treatment): (28.24%) | patients with dose of nitroglycerin score 4 (%) (6 months after treatment): (3.62%) | patients with dose of nitroglycerin score 6 (%) (6 months after treatment): (1.89%) | total angina pectoris score, Md (6 months after treatment): 5.00 | total angina pectoris score, Mean (6 months after treatment): 4.78 | change of total angina pectoris score, Md [3]: 0.00 | change of total angina pectoris score, Mean [3]: −2.34 | patients with change of dose of nitroglycerin score 0 (%) [3]: (70.05%) | patients with change of dose of nitroglycerin score 1 (%) [3]: (0.40%) | patients with change of dose of nitroglycerin score 2 (%) [3]: (4.84%) | patients with change of dose of nitroglycerin score 4 (%) [3]: (0.40%) | patients with change of dose of nitroglycerin score 6 (%) [3]: (0.35%) | patients with change of dose of nitroglycerin score −1 (%) [3]: (0.23%) | patients with change of dose of nitroglycerin score −2 (%) [3]: (18.49%) | patients with change of dose of nitroglycerin score −3 (%) [3]: (0.00%) | patients with change of dose of nitroglycerin score −4 (%) [3]: (4.03%) | patients with change of dose of nitroglycerin score −5 (%) [3]: (0.17%) | patients with change of dose of nitroglycerin score −6 (%) [3]: (1.04%) | distribution of total angina pectoris score: Medium, number of patients (9 months after treatment): 244 | distribution of total angina pectoris score: Medium, percentage of patients (9 months after treatment): (15.97%) | distribution of total angina pectoris score: Mild, number of patients (9 months after treatment): 1280 | distribution of total angina pectoris score: Mild, percentage of patients (9 months after treatment): (83.77%) | distribution of total angina pectoris score: Severe, number of patients (9 months after treatment): 4 | distribution of total angina pectoris score: Severe, percentage of patients (9 months after treatment): (0.26%) | patients with dose of nitroglycerin score 0 (%) (9 months after treatment): (67.11%) | patients with dose of nitroglycerin score 1 (%) (9 months after treatment): (1.03%) | patients with dose of nitroglycerin score 2 (%) (9 months after treatment): (27.73%) | patients with dose of nitroglycerin score 4 (%) (9 months after treatment): (2.41%) | patients with dose of nitroglycerin score 6 (%) (9 months after treatment): (1.72%) | total angina pectoris score, Md (9 months after treatment): 5.00 | total angina pectoris score, Mean (9 months after treatment): 4.39 | change of total angina pectoris score, Md [4]: −1.00 | change of total angina pectoris score, Mean [4]: −2.72 | patients with change of dose of nitroglycerin score 0 (%) [4]: (67.45%) | patients with change of dose of nitroglycerin score 1 (%) [4]: (0.35%) | patients with change of dose of nitroglycerin score 2 (%) [4]: (4.84%) | patients with change of dose of nitroglycerin score 4 (%) [4]: (0.46%) | patients with change of dose of nitroglycerin score 6 (%) [4]: (0.35%) | patients with change of dose of nitroglycerin score −1 (%) [4]: (0.46%) | patients with change of dose of nitroglycerin score −2 (%) [4]: (20.16%) | patients with change of dose of nitroglycerin score −3 (%) [4]: (0.12%) | patients with change of dose of nitroglycerin score −4 (%) [4]: (4.26%) | patients with change of dose of nitroglycerin score −5 (%) [4]: (0.17%) | patients with change of dose of nitroglycerin score −6 (%) [4]: (1.38%) | distribution of total angina pectoris score: Medium, number of patients (12 months after treatment): 176 | distribution of total angina pectoris score: Medium, percentage of patients (12 months after treatment): (11.96%) | distribution of total angina pectoris score: Mild, number of patients (12 months after treatment): 1294 | distribution of total angina pectoris score: Mild, percentage of patients (12 months after treatment): (87.91%) | distribution of total angina pectoris score: Severe, number of patients (12 months after treatment): 2 | distribution of total angina pectoris score: Severe, percentage of patients (12 months after treatment): (0.14%) | patients with dose of nitroglycerin score 0 (%) (12 months after treatment): (71.58%) | patients with dose of nitroglycerin score 1 (%) (12 months after treatment): (1.09%) | patients with dose of nitroglycerin score 2 (%) (12 months after treatment): (23.59%) | patients with dose of nitroglycerin score 4 (%) (12 months after treatment): (2.07%) | patients with dose of nitroglycerin score 6 (%) (12 months after treatment): (1.66%) | total angina pectoris score, Md (12 months after treatment): 0.00 | total angina pectoris score, Mean (12 months after treatment): 3.83
